# Laboratory results from PubChem BioAssay (NCI).
# Where “and” joins values, the source holds several entries; their conditions need not be identical. Equal values may be shown once.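 Method: 48-hour compound exposure of cells in 96-well plates, five concentrations, linear interpolation of endpoints. At the TGI there is no net growth.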
# Columns and labels:
# Assay in all cases: growth of human tumour cells (NCI), 48 h
# [1] = system: M14 melanoma
# [2] = system: HCT-15 colon
# [3] = system: LOX IMVI melanoma
# [4] = system: OVCAR-8 ovarian
# [5] = system: SK-OV-3 ovarian
# [6] = system: NCI-H23 lung
# [7] = system: EKVX NSCLC
# [8] = system: RXF 393 renal
# [9] = system: SNB-19 CNS
# [10] = system: HOP-92 NSCLC
Compound,TGI [1] [µM],TGI [2] [µM],TGI [3] [µM],TGI [4] [µM],TGI [5],TGI [6] [µM],TGI [7] [µM],TGI [8] [µM],TGI [9] [µM],TGI [10] [µM]
CCCCCCCCCCCCCCCCNc1cccc2ccccc12,> 100,> 100,> 100,> 100,> 100 µM,> 100,> 100,> 100,> 100,
Cc1ccc(C2=CC(=O)OC(C[P+](c3ccccc3)(c3ccccc3)c3ccccc3)(c3ccccc3)O2)cc1 (stereo not drawn),32,42.8,,51.1,32.4 µM,27.2,30,73.2,30.9,
S=c1c2cn[nH]c2nc2scc(-c3ccc(Cl)cc3)n12,36.3,26.1,23.3,41.7,> 100 µM,30.1,49.1,17.5,86.2,
COc1ccc(C2c3cn[nH]c3CC3CCCCC32)cc1 (stereo not drawn),36.6,31.7,31.8,35.6,,33.6,,,43.5,
CC(=O)NC1C(OCc2ccccc2)OC(CO)C(O)C1OCC(=O)N[C@@H](C)C(=O)N[C@H](CCC(=O)NCCCNc1c2ccccc2nc2cccc([N+](=O)[O-])c12)C(N)=O (stereo partly drawn),0.209,0.376,0.259,1.71,0.99 µM,0.0835,0.264,,0.552,
O=C(CCn1ccnc1[N+](=O)[O-])NCCCn1ccnc1[N+](=O)[O-],> 100,> 100,> 100,> 100,> 100 µM,> 100,> 100,> 100,,
CC(O)CNC(=O)C(C)Oc1ccc(OCC2CCCCC2)cc1 (stereo not drawn),> 100,> 100,> 100,> 100,> 100 µM,,,,> 100,
CCN1CN(c2ccccc2)C2(CCN(CC3COc4ccccc4O3)CC2)C1=O (stereo not drawn),4.99,54.2,45.2,> 100,> 100 µM,> 100,,40,> 100,
O=P(O)(O)C(N=C(Nc1ccccc1)Nc1ccccc1)P(=O)(O)O,> 100,> 100,> 100,> 100,> 100 µM,> 100,> 100,> 100,> 100,
O=c1[nH][nH]c(=O)n1CCCCCCn1c(=O)[nH][nH]c1=O,> 100,> 100,> 100,> 100,> 100 µM,> 100,> 100,> 100,> 100,
O=[N+]([O-])C(=C(Nc1cccc2cccnc12)Nc1cccc2cccnc12)C(Cl)=C(Cl)Cl,> 100,> 100,> 100,> 100,> 100 µM,> 100,> 100,> 100,> 100,
O=C(O)CN1CCNCCN(CC(=O)O)CCN(CC(=O)O)CCNCC1,> 100,> 100,> 100,> 100,> 100 µM,,> 100,,> 100,> 100
COc1ccc(C(=O)/C=C/c2ccc(OCCCOc3ccc(/C=C/C(=O)c4ccc(OC)cc4)cc3)cc2)cc1,> 100,> 100,,> 100,> 100 µM,,> 100,> 100,> 100,
S=C1NC2=C(CSC/C2=C\c2cccc(Br)c2)C(c2cccc(Br)c2)N1 (stereo not drawn),> 100,> 100,> 100,> 100,> 100 µM,> 100,> 100,> 100,> 100,
CCNC(=S)NNC(=O)C12CC3CC(CC(C3)C1)C2,> 100,> 100,> 100,> 100,> 100 µM,> 100,,> 100,> 100,
CC1(C)OC[C@@H](O)[C@H](C#N)CO1,> 100,> 100,> 100,> 100,> 100 µM,> 100,> 100,> 100,> 100,
CNc1cc2c(c3ccccc13)C(CCl)CN2C(=O)c1cc2cc(OC)c(OC)c(OC)c2[nH]1 (stereo not drawn),,,0.00811,0.0124,0.894 µM and 0.982 µM,0.00191,0.0155,,0.107,0.0466
COc1cc(O)c2c(c1)C(=O)c1cc3c(c(O)c1C2=O)C(OC1OC(C)C(OC)C(O)C1OC)C(OC)C(C)(O)C3=O (stereo not drawn),9.61,15.8,12.4,10.8,97 µM,23.2,14.5,,23.3,
O=C(O)CN1CCN2CCCCCN(CC1)CCN(CC(=O)O)CC2,> 100,> 100,> 100,> 100,> 100 µM,,> 100,,> 100,> 100
